The record followed here is ChEMBL document CHEMBL1139649, “Hetaryl imidazoles: a novel dual inhibitors of VEGF receptors I and II” (Bioorg Med Chem Lett, 2006).

In assay [1] the target is Glycogen synthase kinase-3 beta (Homo sapiens) (UniProt P49841). Description: Inhibition against GSK3-beta at 10 uM by HTRF method. Details: scale not given: the % may be the effect or the level left. A general note: Time-resolved FRET reads energy transfer from a long-lived donor to a nearby acceptor.
In assay [2] the target is Hepatocyte growth factor receptor (Homo sapiens) (UniProt P08581). Kind of assay: Percent inhibition against c-Met at 10 uM by HTRF method. Details: scale not given: the % may be the effect or the level left.
Hepatocyte growth factor receptor (Homo sapiens), sequence (P08581 whole entry): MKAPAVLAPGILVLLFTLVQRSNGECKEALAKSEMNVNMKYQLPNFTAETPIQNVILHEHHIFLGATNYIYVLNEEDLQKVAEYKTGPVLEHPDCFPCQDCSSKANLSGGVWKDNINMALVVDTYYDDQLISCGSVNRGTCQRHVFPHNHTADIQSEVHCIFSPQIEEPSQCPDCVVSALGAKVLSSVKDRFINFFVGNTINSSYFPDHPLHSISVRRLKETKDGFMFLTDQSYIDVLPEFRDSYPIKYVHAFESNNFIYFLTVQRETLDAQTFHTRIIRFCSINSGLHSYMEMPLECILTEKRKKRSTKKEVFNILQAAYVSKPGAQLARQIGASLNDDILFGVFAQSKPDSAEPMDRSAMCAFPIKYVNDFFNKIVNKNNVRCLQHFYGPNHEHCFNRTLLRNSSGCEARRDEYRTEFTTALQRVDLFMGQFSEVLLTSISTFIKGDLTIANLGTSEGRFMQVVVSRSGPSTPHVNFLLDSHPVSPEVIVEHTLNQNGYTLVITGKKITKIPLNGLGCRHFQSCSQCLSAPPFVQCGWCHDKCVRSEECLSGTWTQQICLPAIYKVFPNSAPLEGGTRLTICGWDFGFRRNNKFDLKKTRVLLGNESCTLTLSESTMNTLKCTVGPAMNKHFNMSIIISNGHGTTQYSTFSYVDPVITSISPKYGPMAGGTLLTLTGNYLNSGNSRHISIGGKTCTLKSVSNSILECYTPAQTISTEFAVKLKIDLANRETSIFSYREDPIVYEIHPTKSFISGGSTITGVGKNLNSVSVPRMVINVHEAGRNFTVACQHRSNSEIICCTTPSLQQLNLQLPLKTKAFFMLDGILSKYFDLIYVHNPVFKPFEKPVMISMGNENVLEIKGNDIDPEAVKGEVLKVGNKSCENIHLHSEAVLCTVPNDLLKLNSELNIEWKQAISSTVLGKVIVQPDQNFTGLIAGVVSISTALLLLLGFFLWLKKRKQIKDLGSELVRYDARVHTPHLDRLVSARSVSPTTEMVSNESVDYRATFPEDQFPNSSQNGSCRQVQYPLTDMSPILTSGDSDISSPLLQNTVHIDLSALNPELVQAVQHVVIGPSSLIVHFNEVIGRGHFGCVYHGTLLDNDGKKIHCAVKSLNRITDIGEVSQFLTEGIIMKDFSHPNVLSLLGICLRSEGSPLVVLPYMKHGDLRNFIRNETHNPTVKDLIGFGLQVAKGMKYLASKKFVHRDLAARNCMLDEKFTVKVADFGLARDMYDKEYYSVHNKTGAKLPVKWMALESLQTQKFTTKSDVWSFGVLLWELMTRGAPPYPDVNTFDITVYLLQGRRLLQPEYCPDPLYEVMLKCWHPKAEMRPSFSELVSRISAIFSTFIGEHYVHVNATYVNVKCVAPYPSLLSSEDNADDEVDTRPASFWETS
Assay [3] addresses T1, Vascular endothelial growth factor receptor 2 (Homo sapiens, UniProt P35968). Kind of assay: Inhibition of VEGFR2 by enzymatic assay.
Assay [4] deals with T1, Vascular endothelial growth factor receptor 2. Description: Inhibition of VEGFR2 in 293 adenovirus transfected kidney cells by cell-based ELISA assay. A general note: In an ELISA, binding on a coated surface is turned into a signal by an enzyme label.
Assay [5] has as its target Bcr/Abl fusion protein (Homo sapiens) (UniProt P00519+P11274). Kind of assay: Inhibition of bcr-Abl at 10 uM by HTRF method. Details: scale not given: the % may be the effect or the level left. It counts as protein assay.
The target in assay [6] is Cyclin-dependent kinase 5 (Homo sapiens) (UniProt Q00535). Description: […] against Cdk5 at 10 uM by HTRF method.
Cyclin-dependent kinase 5 (Homo sapiens), sequence (Q00535 whole entry, looked up): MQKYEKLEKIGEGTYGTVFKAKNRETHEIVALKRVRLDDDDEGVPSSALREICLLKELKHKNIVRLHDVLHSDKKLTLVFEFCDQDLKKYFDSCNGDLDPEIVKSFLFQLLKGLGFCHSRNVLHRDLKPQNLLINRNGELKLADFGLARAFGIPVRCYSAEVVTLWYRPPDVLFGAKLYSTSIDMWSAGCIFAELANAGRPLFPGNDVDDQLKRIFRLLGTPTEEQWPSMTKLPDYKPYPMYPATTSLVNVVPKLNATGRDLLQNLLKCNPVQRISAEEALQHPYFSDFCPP
The target in assay [7] is Receptor tyrosine-protein kinase erbB-2 (Homo sapiens) (UniProt P04626). Description: […] against ErbB2 at 10 uM by HTRF method.
Receptor tyrosine-protein kinase erbB-2 (Homo sapiens), sequence (P04626 whole entry): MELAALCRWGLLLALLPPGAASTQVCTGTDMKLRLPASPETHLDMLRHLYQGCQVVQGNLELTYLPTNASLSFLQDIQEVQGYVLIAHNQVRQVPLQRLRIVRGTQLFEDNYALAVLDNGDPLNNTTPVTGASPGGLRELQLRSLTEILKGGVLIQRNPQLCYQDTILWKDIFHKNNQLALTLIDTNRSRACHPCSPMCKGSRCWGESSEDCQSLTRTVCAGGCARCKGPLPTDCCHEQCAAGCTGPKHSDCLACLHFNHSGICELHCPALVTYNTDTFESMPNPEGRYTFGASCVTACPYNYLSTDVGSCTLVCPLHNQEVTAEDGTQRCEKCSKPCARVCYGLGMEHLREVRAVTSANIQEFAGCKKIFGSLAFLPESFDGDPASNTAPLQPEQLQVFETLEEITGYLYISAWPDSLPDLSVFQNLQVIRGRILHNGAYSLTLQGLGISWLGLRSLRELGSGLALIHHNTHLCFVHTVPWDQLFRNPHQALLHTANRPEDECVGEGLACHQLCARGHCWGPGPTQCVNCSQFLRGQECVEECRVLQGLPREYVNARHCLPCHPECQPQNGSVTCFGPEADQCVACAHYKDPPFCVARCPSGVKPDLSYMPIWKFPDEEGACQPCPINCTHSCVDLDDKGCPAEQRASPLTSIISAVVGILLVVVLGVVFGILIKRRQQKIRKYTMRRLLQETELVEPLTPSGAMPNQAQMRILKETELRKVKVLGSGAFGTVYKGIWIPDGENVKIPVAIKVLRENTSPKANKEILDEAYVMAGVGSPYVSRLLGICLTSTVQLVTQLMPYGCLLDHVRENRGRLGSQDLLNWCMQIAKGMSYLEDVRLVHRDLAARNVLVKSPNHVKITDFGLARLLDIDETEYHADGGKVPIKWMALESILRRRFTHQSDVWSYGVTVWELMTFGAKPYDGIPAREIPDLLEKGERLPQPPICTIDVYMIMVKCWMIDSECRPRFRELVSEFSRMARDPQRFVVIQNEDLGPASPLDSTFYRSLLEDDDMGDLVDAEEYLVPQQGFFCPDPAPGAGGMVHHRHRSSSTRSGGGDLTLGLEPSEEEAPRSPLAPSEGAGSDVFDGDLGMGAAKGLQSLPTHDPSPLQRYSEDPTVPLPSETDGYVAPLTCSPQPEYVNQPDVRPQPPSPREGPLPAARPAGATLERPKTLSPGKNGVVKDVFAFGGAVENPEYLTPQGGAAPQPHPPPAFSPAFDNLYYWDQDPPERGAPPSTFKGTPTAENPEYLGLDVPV
The target in assay [8] is Receptor-type tyrosine-protein kinase FLT3 (Homo sapiens) (UniProt P36888). Kind of assay: Inhibition of Flt3 at 10 uM by HTRF method. Also on record: scale not given: the % may be the effect or the level left.
Receptor-type tyrosine-protein kinase FLT3 (Homo sapiens), sequence (P36888 whole entry): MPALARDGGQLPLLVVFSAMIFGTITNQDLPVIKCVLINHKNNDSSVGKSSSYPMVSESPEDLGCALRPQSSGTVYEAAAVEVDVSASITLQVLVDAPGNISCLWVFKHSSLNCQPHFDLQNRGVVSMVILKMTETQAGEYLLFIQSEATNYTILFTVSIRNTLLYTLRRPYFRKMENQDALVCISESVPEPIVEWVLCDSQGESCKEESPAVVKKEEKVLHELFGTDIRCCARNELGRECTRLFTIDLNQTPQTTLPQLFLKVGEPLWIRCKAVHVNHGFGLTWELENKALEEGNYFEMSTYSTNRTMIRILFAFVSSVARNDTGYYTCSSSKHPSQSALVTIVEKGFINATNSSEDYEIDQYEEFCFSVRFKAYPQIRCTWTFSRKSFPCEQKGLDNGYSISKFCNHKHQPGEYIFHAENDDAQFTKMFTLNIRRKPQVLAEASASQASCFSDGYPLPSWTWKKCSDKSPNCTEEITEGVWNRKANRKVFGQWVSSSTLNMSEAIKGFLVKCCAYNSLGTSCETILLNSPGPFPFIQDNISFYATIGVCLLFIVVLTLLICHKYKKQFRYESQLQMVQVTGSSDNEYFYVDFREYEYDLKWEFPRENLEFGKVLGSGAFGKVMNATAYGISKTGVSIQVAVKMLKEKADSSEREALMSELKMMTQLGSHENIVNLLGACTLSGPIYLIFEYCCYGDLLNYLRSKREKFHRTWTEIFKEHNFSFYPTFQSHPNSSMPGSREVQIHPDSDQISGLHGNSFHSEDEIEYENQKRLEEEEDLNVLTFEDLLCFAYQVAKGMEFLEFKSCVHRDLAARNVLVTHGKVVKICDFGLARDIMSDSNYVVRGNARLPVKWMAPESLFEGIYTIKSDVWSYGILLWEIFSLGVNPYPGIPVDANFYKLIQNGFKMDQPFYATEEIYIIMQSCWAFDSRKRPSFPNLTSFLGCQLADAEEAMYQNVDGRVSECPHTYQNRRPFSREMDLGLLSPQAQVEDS
In assay [9] the target is RAC-alpha serine/threonine-protein kinase (Homo sapiens) (UniProt P31749). Description: […] against PKB/Akt at 10 uM by HTRF method.
Assay [10] deals with Insulin-like growth factor 1 receptor (Homo sapiens) (UniProt P08069). Kind of assay: […] against IGF1R at 10 uM by HTRF method.
Assay [11] deals with cAMP-dependent protein kinase (PKA) (Homo sapiens) (UniProt P22694+P17612+P22612). Kind of assay: Inhibition against PKA at 10 uM by HTRF method. Type of assay: protein assay. Details: scale not given: the % may be the effect or the level left.
For assay [12], the target named is Fibroblast growth factor receptor 1 (Homo sapiens) (UniProt P11362). Kind of assay: Percent inhibition against FGFR1 at 10 uM by HTRF method. Also on record: scale not given: the % may be the effect or the level left.
Fibroblast growth factor receptor 1 (Homo sapiens), sequence (P11362 22-822 limits assumed): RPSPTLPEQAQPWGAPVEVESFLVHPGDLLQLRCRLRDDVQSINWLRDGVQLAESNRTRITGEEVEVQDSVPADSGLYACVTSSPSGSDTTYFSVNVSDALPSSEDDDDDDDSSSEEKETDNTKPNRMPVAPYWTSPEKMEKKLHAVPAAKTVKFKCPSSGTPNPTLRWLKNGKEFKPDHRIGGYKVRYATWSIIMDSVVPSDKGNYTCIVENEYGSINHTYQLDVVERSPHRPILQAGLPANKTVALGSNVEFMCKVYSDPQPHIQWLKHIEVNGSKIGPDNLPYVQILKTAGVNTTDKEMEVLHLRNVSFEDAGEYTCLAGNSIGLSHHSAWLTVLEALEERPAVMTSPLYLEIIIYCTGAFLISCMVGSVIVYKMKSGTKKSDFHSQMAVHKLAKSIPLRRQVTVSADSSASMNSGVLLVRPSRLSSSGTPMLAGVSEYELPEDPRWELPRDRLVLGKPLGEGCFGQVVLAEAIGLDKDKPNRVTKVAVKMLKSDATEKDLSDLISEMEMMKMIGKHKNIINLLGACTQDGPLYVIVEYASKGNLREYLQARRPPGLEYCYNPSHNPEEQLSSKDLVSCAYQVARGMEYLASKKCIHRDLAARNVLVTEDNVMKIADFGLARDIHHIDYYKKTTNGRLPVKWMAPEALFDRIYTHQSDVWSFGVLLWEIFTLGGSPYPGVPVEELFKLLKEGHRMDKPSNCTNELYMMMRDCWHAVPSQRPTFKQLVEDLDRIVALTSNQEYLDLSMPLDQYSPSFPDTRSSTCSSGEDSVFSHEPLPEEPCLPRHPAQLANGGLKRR
In assay [13] the target is Vascular endothelial growth factor receptor 1 (Homo sapiens, UniProt P17948). Kind of assay: Inhibition of VEGFR1 by enzymatic assay.
Assay [14] concerns the target Cyclin-dependent kinase 2 (Homo sapiens) (UniProt P24941). Kind of assay: […] against Cdk2 at 10 uM by HTRF method.
The target of assay [15] is Epidermal growth factor receptor (Homo sapiens) (UniProt P00533). Kind of assay: […] against ErbB1 at 10 uM by HTRF method.
The target in assay [16] is T2, Ephrin type-B receptor 4 (Homo sapiens) (UniProt P54760).
T2 sequence (whole entry): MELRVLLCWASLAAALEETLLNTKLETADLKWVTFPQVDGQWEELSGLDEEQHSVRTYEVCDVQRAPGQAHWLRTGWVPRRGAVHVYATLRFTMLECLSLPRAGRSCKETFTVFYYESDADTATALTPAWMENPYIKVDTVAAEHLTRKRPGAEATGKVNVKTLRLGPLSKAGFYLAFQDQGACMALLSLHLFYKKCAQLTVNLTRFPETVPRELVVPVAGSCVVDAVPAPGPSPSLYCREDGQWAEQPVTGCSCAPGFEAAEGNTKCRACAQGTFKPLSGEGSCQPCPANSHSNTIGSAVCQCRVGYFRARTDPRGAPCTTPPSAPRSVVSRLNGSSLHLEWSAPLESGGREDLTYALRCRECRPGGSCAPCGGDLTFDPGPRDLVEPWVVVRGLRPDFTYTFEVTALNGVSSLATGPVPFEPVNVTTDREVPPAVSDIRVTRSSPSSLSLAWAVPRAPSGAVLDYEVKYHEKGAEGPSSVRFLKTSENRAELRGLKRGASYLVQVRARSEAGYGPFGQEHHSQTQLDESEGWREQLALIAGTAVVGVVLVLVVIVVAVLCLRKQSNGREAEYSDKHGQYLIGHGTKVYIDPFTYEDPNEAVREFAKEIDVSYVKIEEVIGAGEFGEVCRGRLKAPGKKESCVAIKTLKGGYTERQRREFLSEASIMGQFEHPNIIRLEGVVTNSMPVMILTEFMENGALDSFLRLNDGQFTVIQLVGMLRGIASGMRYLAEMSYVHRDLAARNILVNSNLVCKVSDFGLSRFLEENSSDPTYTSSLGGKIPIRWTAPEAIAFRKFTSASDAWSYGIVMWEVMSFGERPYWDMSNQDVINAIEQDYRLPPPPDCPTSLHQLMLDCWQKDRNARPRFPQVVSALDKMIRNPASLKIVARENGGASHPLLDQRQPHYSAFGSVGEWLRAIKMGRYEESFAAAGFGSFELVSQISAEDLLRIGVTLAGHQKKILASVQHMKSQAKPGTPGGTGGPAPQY
Kind of assay: Percent inhibition against EphB4 at 10 uM by HTRF method. Also on record: scale not given: the % may be the effect or the level left.

As for `Cn1cnc(NCc2ccc3[nH]ncc3c2)c1-c1nnc(Nc2ccc(Cl)cc2)o1`, the Activity in [1], in assay [2], in assay [5], in [6], in assay [7] and in assay [8] was less than 30% in each case. The Activity in [9], in assay [10], in [11], in assay [12] and in [16] was less than 30% throughout. The IC50 was 2370 nM in [3], greater than 10000 nM in [4] and greater than 10000 nM in [13]. For the same molecule, the Percent inhibition in assay [14] and in assay [15] was less than 30% each time.
`Cn1cnc(NCc2ccncc2)c1-c1nnc(NCc2ccc3c(c2)OCO3)o1`: the Activity in assay [1], in assay [2], in assay [5], in [6], in [7] and in assay [8] was less than 30% throughout. In addition, the Activity in [9], in [10], in assay [11], in assay [12] and in assay [16] was less than 30% each time. The IC50 in [3] is 140 nM; in [4], 270 nM; in [13] it was 440 nM. The Percent inhibition in assay [14] and in [15] was less than 30% in each case.
For `Cn1cnc(NCc2ccncc2)c1-c1nnc(Nc2ccc(Cl)c(Cl)c2)o1`, the Activity in assay [1], in [2], in assay [5], in assay [6], in [7] and in assay [8] was less than 30% throughout. The Activity in assay [9], in assay [10], in [11], in assay [12] and in [16] was less than 30% each time. Besides, the IC50 in assay [3] came out at 180 nM; in assay [4] it was 260 nM; in assay [13] it was 490 nM. Also, the Percent inhibition in assay [14] and in assay [15] was less than 30% each time.
As for `Cn1cnc(NCc2ccncc2)c1-c1nnc(Nc2cccc(OC(F)(F)F)c2)o1`, the Activity in assay [1], in [2], in assay [5], in assay [6], in [7] and in assay [8] was less than 30% throughout. In addition, the Activity in assay [9], in assay [10], in [11], in [12] and in [16] was less than 30% throughout. Moreover, the IC50 amounted to 46 nM in [3], 130 nM in assay [4] and 560 nM in assay [13]. Further, the Percent inhibition in assay [14] and in [15] was less than 30% throughout.
As to `Cn1cnc(NCc2ccc3ccccc3n2)c1-c1nnc(Nc2ccc(Cl)cc2)o1`, the Activity in assay [1], in [2], in assay [5], in [6], in assay [7] and in assay [8] was less than 30% throughout. Moreover, the Activity in assay [9], in assay [10], in assay [11], in assay [12] and in assay [16] was less than 30% throughout. Also, the IC50 in assay [3], in assay [4] and in assay [13] was greater than 10000 nM in each case. The Percent inhibition in assay [14] and in assay [15] was less than 30% each time.

In general, IC50 refers to the concentration that inhibits the measured activity by half.
